Results from patent US10196345B2, “MAO-B selective inhibitor compounds, pharmaceutical compositions thereof and uses thereof” (The University of British Columbia, priority 2013, dated 2019).
Several values for one entry are separate records, joined by “and”; a condition that tells them apart may be missing. Equal values may be shown once. Entries after “also recorded” stand apart in the source; their conditions may differ. Where a name gives a salt, the structure may show the parent alone. Read-outs that look alike come from different tables or passages of the source.

What was measured:
recombinant human MAO-A = biological target: T1, recombinant human MAO-A (Homo sapiens, UniProt P21397); assay: Cell-free Fluorescent Monoamine Oxidase A&B Detection Assay, MAO-A; format: biochemical; conditions: for IC50: read-out: IC50 MAO-A
T1 sequence (P21397 1-527): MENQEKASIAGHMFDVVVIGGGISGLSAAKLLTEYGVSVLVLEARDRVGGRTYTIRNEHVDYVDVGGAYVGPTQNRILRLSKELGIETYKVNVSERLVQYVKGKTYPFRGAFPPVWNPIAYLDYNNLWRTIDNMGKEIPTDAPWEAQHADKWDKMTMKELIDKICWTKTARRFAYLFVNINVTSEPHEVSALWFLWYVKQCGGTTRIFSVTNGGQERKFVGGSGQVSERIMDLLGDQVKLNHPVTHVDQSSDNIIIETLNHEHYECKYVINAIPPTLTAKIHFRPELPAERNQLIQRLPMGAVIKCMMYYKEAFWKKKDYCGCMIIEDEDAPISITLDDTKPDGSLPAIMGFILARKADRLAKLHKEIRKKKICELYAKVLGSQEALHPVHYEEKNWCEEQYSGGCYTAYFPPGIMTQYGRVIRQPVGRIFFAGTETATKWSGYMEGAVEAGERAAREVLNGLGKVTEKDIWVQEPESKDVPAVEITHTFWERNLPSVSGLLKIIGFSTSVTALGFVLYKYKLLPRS
Method: (§1) The assay was repeated to confirm data.
(§2) MAO B specific inhibitory activity and selectivity over MAO A is assayed using a commercial kit [Fluoro MAO A and B detection kit (Cell Technology Inc™)]. This kit uses a non-fluorescent detection reagent to measure H2O2 released from the conversion of an MAO A and MAO B substrate specific to its aldehyde. Furthermore, H2O2 oxidizes the detection reagent in a 1:1 stoichiometry to produce a fluorescent product (resorufin). […] This information is then provided to the medicinal chemists to help direct synthesis of subsequent iterations.

[1] = test system: Madin Darby canine kidney (MDCK-I) cells; assay: TEER in MDCK-I cells; format: cell-based; conditions: for 144-hour barrier (TEER) vs control: MDCK-I, treated at 72 hours; for effect on TEER (MAO A, B, AB inhibitors): no concentration given
Method: In each case, TEER was measured every 48 hours after treatment.
Transwell cultures were treated at 72 hours (T) post-cell plating.
Transepithelial Resistance (TER) is a common method to screen for barrier integrity. […] Fluorescein isothiocyanate conjugated 10 kD dextran (Invitrogen™) will be added to the apical Transwell™ compartment, fixed, and examined for dextran permeation (Umeda et al., 2006).
Amphiregulin (AR) is an EGFR binding ligand and may play a pivotal role in the previously described signaling axis (see FIGS. 15-17). […] (ii) GI [intestinal epithelial cell (IEC)] and (iii) classical [Madin-Darby canine kidney (MDCK-1)].

[2] = 14 week study, cited from earlier work
recombinant human MAO-B = biological target: T2, recombinant human MAO-B (Homo sapiens, UniProt P27338); assay: Cell-free Fluorescent Monoamine Oxidase A&B Detection Assay, MAO-B; format: biochemical; conditions: for IC50: read-out: IC50 MAO-B
T2 sequence (P27338 1-520): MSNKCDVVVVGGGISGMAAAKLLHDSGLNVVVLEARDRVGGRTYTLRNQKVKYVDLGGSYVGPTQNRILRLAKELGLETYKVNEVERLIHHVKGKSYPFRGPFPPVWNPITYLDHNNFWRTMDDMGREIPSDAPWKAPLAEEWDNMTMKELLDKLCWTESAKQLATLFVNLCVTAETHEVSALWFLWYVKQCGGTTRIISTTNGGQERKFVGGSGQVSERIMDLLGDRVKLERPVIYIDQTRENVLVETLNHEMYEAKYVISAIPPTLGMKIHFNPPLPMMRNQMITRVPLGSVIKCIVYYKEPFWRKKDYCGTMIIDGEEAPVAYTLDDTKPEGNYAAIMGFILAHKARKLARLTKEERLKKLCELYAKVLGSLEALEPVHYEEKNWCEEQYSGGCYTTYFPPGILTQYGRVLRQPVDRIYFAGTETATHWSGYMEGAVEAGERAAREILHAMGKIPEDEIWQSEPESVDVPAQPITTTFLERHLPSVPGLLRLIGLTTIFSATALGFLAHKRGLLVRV
Method: as §1, §2

[3] = in vitro BBB permeability in MDCK-WT cells; conditions: dog, MDCK
Source text: (§3) Wildtype Madin-Darby canine cells (MDCK-WT) were used to predict CNS permeability of compounds PS-RG0103, PS-RG0216, PS-RG0245 and PS-AD0191. […] J Allergy Clin Immunol. 1990; 86(6 pt 2): p. 1025-8.
(§4) Novel MAO B inhibitors selected based on the above screening program will be screened using an in vitro model of blood brain barrier (BBB). Madin-Darby canine kidney (MDCK-WT) and MDCK cells transfected with the human MDR1 gene (MDCK-MDR1) are well established in vitro models used to predict a compound's ability to permeate the blood brain barrier (BBB). […] Apparent permeability (Papp), Efflux ratio (Papp B-A/Papp A-B), as well as the Net flux ratio (Efflux ratioMDCK-MDR1/Efflux ratioMDCK-WT) can be calculated to identify compound BBB permeability and identify compounds that are substrates of P-gp.

[4] = hepatocytes, 1 h
[5] = stability assay in mouse liver microsomes; conditions: after 60 minutes at room temperature
[6] = stability assay in human liver microsomes; conditions: after 60 minutes at room temperature
[7] = test system: Wildtype Madin-Darby canine cells (MDCK-WT); assay: in vitro BBB permeability in MDCK-WT cells; conditions: MDCK-WT; one-way ANOVA, Dunnett's test
Source text: as §3, §4

[8] = test system: IL-8 protein expression in Caco-2 cells; assay: IL-8 protein expression in LPS- and TNFα-treated Caco-2 cells; format: cell-based, human; conditions: Caco-2, 1 μg/mL LPS or 50 ng/mL TNFα + 20 μM compound, 4, 12 or 24 h
Method: Caco-2 cells were seeded at 83300 cells/cm^2 on a polystyrene 96-well plate in DMEM medium (#10313-021, Gibco™) containing 10% FBS. On day 5 after seeding, wells were replaced with fresh media containing 2.5% FBS. […] Supernatants of the treated cells were analyzed for pro- and anti-inflammatory cytokine proteins using the Human Proinflammatory 7-Plex Ultra-Sensitive Kit™ (K15008C, MSD™) measured by the Sector Imager 2400A (MSD™). Left panel: Absolute concentrations of IL-8 protein in supernatants of cells treated with control (media only), 1 μg/mL LPS or 50 ng/mL TNFα. […] Values were determined by subtracting supernatant cytokine concentrations of control from supernatant cytokine concentrations of treated cells. Results are expressed as mean±standard deviation (n=3).

[9] = cell-free, recombinant human MAO-A
[10] = cell-free, recombinant human MAO-A, read-out: IC90 MAO-A
[11] = cell-free, recombinant human MAO-A, hydrochloride

C#CCN(C)CCCOc1ccc(Cl)cc1Cl [Clorgyline]
IC90 (recombinant human MAO-A; read-out: IC90 MAO-A (μM)): 0.00624 µM | 144-hour barrier (TEER) vs control ([1]; 5 μm inhibitor): significantly reduced the barrier | 144-hour barrier (TEER) vs control ([1]; 40 μm inhibitor): significantly reduced the barrier | effect on TEER (MAO A, B, AB inhibitors) [1]: generally reduced TEER

C#CCN(C)[C@H](C)Cc1ccccc1 [L-selegiline]
total body fat reduction compared to control rats [2]: 30% | food intake vs untreated controls ([2]; rats): comparable | lower weight gain compared to untreated controls ([2]; rats): 14% | plasma leptin levels reduction ([2]; rats): 41%

CN(CC(=O)O)[C@H](CC#N)Cc1ccc(OCc2ccc(Cl)c(Cl)c2)cc1.Cl [PS-AD0191, (S)—N-(1-cyano-3-(4-((3,4-dichlorobenzyl)oxy)phenyl)propan-2-yl)-N-methylglycine]
IC50 (recombinant human MAO-A; [9]): 54.6 µM | IC90 (recombinant human MAO-A; [10]): 424 µM | IC90 (recombinant human MAO-B): 1.03 µM | IC50 (recombinant human MAO-B): 0.3 µM and 0.302 µM | Papp [3]: 79 ± 14 nm/s

C[C@H](Cc1ccc(OCc2cccc(Cl)c2)cc1)N(C)CC(=O)O [PS-RG0103, N—((R)-(1-(4-(3-chlorobenzyloxy)phenyl)propan-2-yl)(methyl))glycine hydrochloride]
IC50 MAO-A (μM) (recombinant human MAO-A; [11]): no activity on MAO-A; also recorded: Does not | IC90 (recombinant human MAO-B): 2.27 µM | IC50 (recombinant human MAO-B): 0.27 µM and 0.275 µM | Papp [3]: 22 ± 2 nm/s | compound remaining, mouse hepatocyte stability [4]: 101% | compound remaining in mouse microsome [5]: 69% | compound remaining in human microsome [6]: 93%

C[C@H](Cc1ccc(OCc2ccc(Br)c(Cl)c2)cc1)N(C)CC(=O)O.Cl [PS-RG0216, (R)—N-(1-(4-((4-bromo-3-chlorobenzyl)oxy)phenyl)propan-2-yl)-N-methylglycine hydrochloride]
IC50 MAO-A (μM) (recombinant human MAO-A; [11]): no activity on MAO-A; also recorded: Does not | IC90 (recombinant human MAO-B): 1.02 µM | IC50 (recombinant human MAO-B): 0.2 µM and 0.203 µM | Papp [3]: 12 ± 1 nm/s | permeability compared with cetirizine [7]: not different from cetirizine | IL-8 protein expression [8]: attenuation of IL-8 protein expression | compound remaining, mouse hepatocyte stability [4]: 100% | compound remaining in mouse microsome [5]: 74% | compound remaining in human microsome [6]: 91%

C[C@H](Cc1ccc(OCc2ccc3ccccc3c2)cc1)N(C)CC(=O)O [PS-RG0227, (R)—N-methyl-N-(1-(4-(naphthalen-2-ylmethoxy)phenyl)propan-2-yl)glycine hydrochloride]
IC50 (recombinant human MAO-A; [9]): 955 µM | IC90 (recombinant human MAO-A; [10]): 63000 µM | IC90 (recombinant human MAO-B): 843 µM | IC50 (recombinant human MAO-B): 11.5 µM

C[C@H](Cc1ccc(OCc2ccc(Cl)c(Cl)c2)cc1)N(C)CC(=O)O.Cl [PS-RG0245, (R)—N-(1-(4-((3,4-dichlorobenzyl)oxy)phenyl)propan-2-yl)-N-methylglycine hydrochloride]
IC50 (recombinant human MAO-A; [9]): 17.2 µM and 17.1 µM | IC90 (recombinant human MAO-A; [10]): 99.8 µM | IC90 (recombinant human MAO-B): 0.873 µM | IC50 (recombinant human MAO-B): 0.21 µM and 0.207 µM | Papp [3]: 36 ± 2 nm/s | permeability compared with cetirizine [7]: not different from cetirizine

COC(=O)c1ccc(COc2ccc(C[C@@H](C)N(C)CC(=O)O)cc2)cc1.Cl [PS-RG0246, (R)—N-(1-(4-((4-(methoxycarbonyl)benzyl)oxy)phenyl)propan-2-yl)-N-methylglycine hydrochloride]
IC50 MAO-A (μM) (recombinant human MAO-A; [9]): Does not | IC90 (recombinant human MAO-B): 10600 µM | IC50 (recombinant human MAO-B): 361 µM

C[C@H](Cc1ccc(OCCc2ccccc2)cc1)N(C)CC(=O)O.Cl [PS-RG0247]
IC50 MAO-A (μM) (recombinant human MAO-A; [9]): Does not | IC90 (recombinant human MAO-B): 619 µM | IC50 (recombinant human MAO-B): 19.3 µM

COc1cccc(COc2ccc(C[C@@H](C)N(C)CC(=O)O)cc2)c1 [PS-RG0264, (R)—N-(1-(4-((3-methoxybenzyl)oxy)phenyl)propan-2-yl)-N-methylglycine hydrochloride]
IC50 (recombinant human MAO-A; [9]): 359 µM | IC90 (recombinant human MAO-A; [10]): 78500 µM | IC90 (recombinant human MAO-B): 50.5 µM | IC50 (recombinant human MAO-B): 2.22 µM

O=C(NCCN1CCOCC1)c1ccc(Cl)cc1 [moclobemide]
144-hour barrier (TEER) vs control ([1]; 5 μm inhibitor): increased over control | barrier integrity at low doses ([1]; low doses): small increase in the barrier integrity | effect on TEER (MAO A, B, AB inhibitors) [1]: generally reduced TEER

C#CCN(C)Cc1ccccc1 [pargyline]
144-hour barrier (TEER) vs control ([1]; 5 μm inhibitor): increased over control | 144-hour barrier (TEER) vs control ([1]; 40 μm inhibitor): increased over control | effect on TEER (MAO A, B, AB inhibitors) [1]: increased TEER
